Consider four compounds from patent US8414870B2, “Benzylidene substituted 2,4-pentanedione compounds and use thereof as stabilizers” (Sytheon, Ltd., priority 2010, dated 2013).

The nature of data set [1]: Photostabilization of avobenzone in ethanol test solution under sun simulator. The class given is physicochemical. The protocol:
A comparative photostabilization study was conducted comparing the photostabilization efficacy of Synoxy™ AS with Octocrylene and Oxynex® ST in the stabilization of avobenzone. Samples for evaluation were prepared as follows:
Solutions of the photosensitive material and photostabilizer in ethanol were prepared, typically at a 1:1 to 1:5 weight ratio. A base test solution of 3% Avobenzone+5% Octyl salicylate+10% Homoslate in ethanol (the “Test Solution”) was made. Four additional solutions were prepared by adding 2% Synoxyl™ AS, 4% Octocrylene, 2% Oxynex® ST, and 2% Dehydrozingerone, respectively, to four aliquots of the Test Solution.
Samples of each solution were prepared as ultra h n films between two quartz plates so as to obtain a minimum of 90% light transmission over the entire spectrum range of non absorbing chromophores. […] Each sample was then irradiated under sun simulator (754 W/m^2, 2 MED/h, UV dose from 20 to 100 Jules/cm^2) for various durations and light absorption spectra recorded for each sample at given times. The maximal absorption band λmax of each solution was determined before and after irradiation. The amount of the photosensitive materials remaining in solution after irradiation was calculated as the ratio of theft two maximal absorptions.

Data set [2] in a line: Peroxyl radical antioxidant capacity (ORAC). Conditions: method of Ou et al. 2001. The source says: (§1) The antioxidant profile of the compound of Example 1, Synoxyl™ AS, was compared to two widely used commercial antioxidants, natural tocopherol and Oxynex® ST, a proprietary stabilizer based on Diethylhexyl Syringylidene Malonate (DESM), available form EMD Chemicals, Inc., of Gibbstown, N.J., USA. Several test methods were employed.

A short description of data set [3]: Hydroxyl radical antioxidant capacity. Particulars: method of Ou et al. 2002.
Excerpt: as §1

Data set [4] can be described thus: Peroxynitrile antioxidant capacity. Conditions: method of Zhang et al. 2007.
Excerpt: as §1

Data set [5] in a line: Superoxide antioxidant capacity. Particulars: method of Dubost et al. 2007.
Excerpt: as §1

Data set [6] can be described thus: Singlet oxygen antioxidant capacity. Particulars: method of Zhang et al. 2009.
Excerpt: as §1

A short description of data set [7]: Stabilization of colored shampoo, fluorescent light aging. The class given is physicochemical. Particulars: 0.4 g in 120 g shampoo, ambient temperature, 4 weeks (unmodified shampoo 21.6). Here is the method:
The stabilizer compound according to Example 1, Synoxyl™ AS, was added to a commercial shampoo formulation in order to evaluate its ability to reduce the amount of dye fading following exposure to fluorescent lighting. The sample was prepared by dissolving 0.4 g of Synoxyl™ AS in 5 ml of ethanol and then adding the solution to 120 g of Suave® Natural Fresh Mountain Strawberry Shampoo with agitation and agitated for 15 minutes. A sample of the unmodified shampoo and the modified shampoo are then placed into 20 ml glass scintillation vials. Both sets of vials were weathered under fluorescent light aging at ambient temperature for 4 weeks. The L*a*b coordinates before and after exposure are measured using X-Rite 938 Spectra-densitometer. Color change is expressed as Delta E (ΔE) which is calculated by the formula: ΔE=[(ΔL*)^2+(Δa*)^2+(Δb*)^2]^1/2

Data set [8] in a line: Photostabilization of water-soluble dyes, solar simulated light. The class given is physicochemical. Conditions: 0.05% in dye premix; solar simulated light ~40 hours (without stabilizer color lost within about 2 hours). The protocol:
The stabilizer compound identified as Synoxyl™ AS according to Example 1 was added to two dye premix formulations as set forth in Table 9 in order to evaluate its ability to reduce the amount of dye fading following exposure to solar simulated light. Control samples without the Synoxyl™ AS were also subjected to the same conditions.

For data set [9] the following is noted: cited from earlier work.

Take `COc1cc(/C=C/C(C)=O)ccc1O` [Dehydrozingerone]: the “stabilization of photosensitive compounds” value in data set [1] is “fails to stabilize photosensitive compounds”.
For the compound `CCCCC(CC)COC(=O)C(=Cc1cc(OC)c(O)c(OC)c1)C(=O)OCC(CC)CCCC` (stereo not shown) [Oxynex ® ST, Diethylhexyl Syringylidene Malonate], the “Peroxyl (ORAC)” value in [2] came to 550 Trolox equivalent/gm. In addition, in [3], the Hydroxyl is on record as 0 Trolox equivalent/gm. Besides, in [4], the Peroxynitrile is on record as 0 Trolox equivalent/gm. This compound also showed a Superoxide in data set [5] of 0 Trolox equivalent/gm. Also, the Singlet oxygen in [6] was 4,532 Trolox equivalent/gm.
`COc1cc(C=C(C(C)=O)C(C)=O)ccc1O` [Synoxyl ™ AS, 3-(4-Hydroxy, 3-methoxybenzylidene)-2,4-pentanedione]: in [2], the “Peroxyl (ORAC)” value is listed as 14,363 Trolox equivalent/gm. Moreover, in [3], the Hydroxyl was 47,180 Trolox equivalent/gm. Also, in data set [4], the Peroxynitrile is on record as 9 Trolox equivalent/gm. Besides, in data set [5], the Superoxide is listed as 1,042 Trolox equivalent/gm. Also, the Singlet oxygen in [6] is 13,283 Trolox equivalent/gm. Besides, the “change in color, Delta E” value in data set [7] came out at 12.3. Moreover, in [8], the dye fading entry is “did not fade”.
`CC1=C(/C=C/C(C)=C/C=C/C(C)=C/C(=O)O)C(C)(C)CCC1` [tretinoin, all-trans-retinoic acid]: the solubility in chloroform entry in data set [9] (chloroform) was “slightly soluble”. Further, the solubility in ether entry in [9] (ether) is listed as “sparingly soluble”. For the same compound, the “solubility in methylene chloride” value in data set [9] (methylene chloride) is listed as “soluble”.
